Experimental data reported in patent US7329670B1, “Inhibition of RAF kinase using aryl and heteroaryl substituted heterocyclic ureas” (Bayer Pharmaceuticals Corporation, priority 1997, dated 2008).

| Structure (SMILES) | melting point [°C] |
| --- | --- |
| CC(C)(C)c1cc(NC(=O)Nc2cccc(Cl)c2Cl)c(-c2ccncc2)o1 [Entry 40, N-(2-(4-Pyridinyl)-5-tert-butyl-3-furyl)-N′-(2,3-dichlorophenyl)urea] | 195 to 198 |
| CC(C)(C)c1cc(NC(=O)Nc2cccc(Cl)c2Cl)c(-c2ccccc2)s1 [Entry 41, N-(2-Phenyl-5-tert-butyl-3-thienyl)-N′-(2,3-dichlorophenyl)urea] | 171 to 173 |
